Consider 1 compound from patent US7115665B1, “Inhibitors of endo-exonuclease activity for treating cancer” (Onocozyme Pharma, Inc., priority 2000, dated 2006).

The test system of one assay is H460 NSCLC cells. Kind of assay: cells. Particulars: Homo sapiens, read-out: LC50.
The test system of a further assay is HT29 colon cancer cells. Kind of assay: cells. Particulars: Homo sapiens, read-out: LC50.
The next assay relates to cancer cells. Kind of assay: Efficiency of drug combination at killing cancer cells. The class given is cell-based. The note with it: FIG. 4; efficiency from LC50 ratios.
The next assay relates to human endo-exonuclease. Kind of assay: Endo-exonuclease nuclease activity inhibition assay. The class given is biochemical. On the procedure: The cultured cells were detached with trypsin-EDTA and the cell suspensions were centrifuged at 4° C. with a force of 700 g for 10 minutes. The cell pellets were washed twice with cold phosphate buffered saline (PBS). The cells were then resuspended and sonicated in 20 mM Tris-HCl, pH 7.5, containing 5 mM EDTA and 1 mM PMSF (buffer A). The resulting cell lysis suspensions were centrifuged at 4° C. at 10,000 g for 15 min. […] After washing extensively with buffer A, (i.e. until the A280 of the eluates were zero), the column was then eluted with buffer A containing 3.5 M MgCl2 to elute the endo-exonuclease. The eluted endo-exonuclease was dialyzed extensively against buffer A with at least two changes of buffer and one change of distilled water. The endo-exonuclease was then concentrated by lyophilization.
One unit of activity was defined as the amount of deoxyribonuclease that renders 1 μg of DNA acid-soluble in 30 min at 37° C. For the inhibition assay with the drugs, the drugs were added to the endo-exonuclease prior to the start of the nuclease reaction.

The next assay concerns H520 NSCLC cells. In words: cells. The note with it: Homo sapiens, read-out: LC50.
Assay [1] concerns MCF-7 breast cancer cells. In words: cells. The note with it: Homo sapiens, read-out: LC50.

SMILES strings stand for the structures. Like-named read-outs stand apart in the source and are kept apart here.

Consider `N=C(N)c1ccc(OCCCCCOc2ccc(C(=N)N)cc2)cc1` [Pentamidine, pentamidine], for which the CC50 with H460 NSCLC cells (NCI-H460, 48 h) worked out at 1340 µM; in the assay on H460 NSCLC cells (NCI-H460, 96 h), 160 µM; in the assay on HT29 colon cancer cells (HT-29, 48 h), 270 µM; in the assay on HT29 colon cancer cells (HT-29, 96 h), 60 µM; in the assay with H520 NSCLC cells (NCI-H520, 48 h), 240 µM; in the assay with H520 NSCLC cells (NCI-H520, 96 h), 130 µM. The CC50 in assay [1] (MCF7, 48 h) came to 150 µM; in assay [1] (MCF7, 96 h) it was 80 µM. Further, in the assay with cancer cells, the “Efficiency at killing cancer cells of cisplatin combined with pentamidine versus cisplatin alone” value is “up to 16,000 times”. Also, the “Percent of Inhibition of endo-exonuclease activity” value amounted to 37% with human endo-exonuclease (25 μM), 50% in the assay on human endo-exonuclease (50 μM) and 100% in the assay with human endo-exonuclease (100 μM).
